Data on seven compounds can be found in patent US20070010514A1, “Non-steroidal progesterone receptor modulators” (priority 2005, published 2007).

For test [1], the target named is T1, PR-B progesterone receptor (Homo sapiens, UniProt P06401).
T1 sequence (P06401 1-933): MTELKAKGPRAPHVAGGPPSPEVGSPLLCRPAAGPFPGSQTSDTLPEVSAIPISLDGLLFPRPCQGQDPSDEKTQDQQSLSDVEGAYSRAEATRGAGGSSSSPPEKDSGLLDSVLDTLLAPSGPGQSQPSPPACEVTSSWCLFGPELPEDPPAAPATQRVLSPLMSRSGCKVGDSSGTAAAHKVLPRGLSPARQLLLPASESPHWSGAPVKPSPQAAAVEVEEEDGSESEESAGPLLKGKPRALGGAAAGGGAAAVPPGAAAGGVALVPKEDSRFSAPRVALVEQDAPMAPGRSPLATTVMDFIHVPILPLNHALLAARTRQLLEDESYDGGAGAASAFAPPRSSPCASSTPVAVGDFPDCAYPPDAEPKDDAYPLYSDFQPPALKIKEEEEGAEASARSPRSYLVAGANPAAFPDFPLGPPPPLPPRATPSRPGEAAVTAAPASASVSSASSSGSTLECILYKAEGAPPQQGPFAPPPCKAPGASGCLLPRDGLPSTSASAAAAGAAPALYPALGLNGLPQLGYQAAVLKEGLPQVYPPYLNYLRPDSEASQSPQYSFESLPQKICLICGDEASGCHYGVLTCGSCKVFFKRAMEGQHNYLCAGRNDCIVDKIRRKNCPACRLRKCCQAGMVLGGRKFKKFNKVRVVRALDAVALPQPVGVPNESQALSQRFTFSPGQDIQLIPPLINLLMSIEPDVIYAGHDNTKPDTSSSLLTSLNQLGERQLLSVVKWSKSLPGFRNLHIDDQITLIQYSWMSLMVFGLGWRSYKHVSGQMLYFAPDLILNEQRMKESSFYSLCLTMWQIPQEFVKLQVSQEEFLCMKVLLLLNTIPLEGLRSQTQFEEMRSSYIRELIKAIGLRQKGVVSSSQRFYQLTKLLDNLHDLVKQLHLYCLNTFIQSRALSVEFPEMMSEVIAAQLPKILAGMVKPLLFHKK
The test is described as follows: Antagonism at the PR-B progesterone receptor (transactivation assay). The format is cell-based. Particulars: for IC50: read-out: Antagonistic Activity IC50. As to the method:
Antagonism at the PR-B Progesterone Receptor
The transactivation assay is carried out as described in WO 02/054064.

Test [2] concerns the target T1, PR-B progesterone receptor. The test is described as follows: Agonism on the PR-B progesterone receptor (transactivation assay). The class given is cell-based. The settings on record: for EC50: read-out: Agonistic Activity EC50. As to the method:
Agonism on the PR-B Progesterone Receptor
The transactivation assay is carried out as described in Fuhrmann et al. (Fuhrmann U., Hess-Stump H., Cleve A., Neef G., Schwede W., Hoffmann J., Fritzemeier K.-H., Chwalisz K., Journal of Medicinal Chem, 43, 26, 2000, 5010-5016).

As a reminder, the IC50 is the concentration that gives 50% inhibition. As usually defined, the EC50 is the concentration at which the effect is half-maximal.

Take `Cc1noc(=O)c2ccc(NC(=O)C(O)(C#Cc3ccccc3C(F)(F)F)CC(C)(C)c3ccccc3)cc12` (racemic) [Example 24, rac-6-[2-Hydroxy-4-methyl-4-phenyl-2-[(2-trifluoromethylphenyl)ethynyl]-pentanoylamino]-4-methyl-2,3-benzoxazin-1-one]: in test [1], the “Antagonistic Activity Efficacy” value is given as 100% and the concentration for half-maximal inhibition (IC50) was found to be 2000 pM. The “Agonistic Activity Efficacy” value in test [2] came out at 0%.
With `Cc1noc(=O)c2ccc(NC(=O)C(O)(C#Cc3ccccc3)CC(C)(C)c3ccccc3)cc12` (racemic) [Example 16, rac-6-[2-Hydroxy-4-methyl-4-phenyl-2-(phenylethynyl)pentanoylamino]-4-methyl-2,3-benzoxazin-1-one], in test [1], the “Antagonistic Activity Efficacy” value was 82% and the IC50 came to 700 pM. Further, in test [2], the “Agonistic Activity Efficacy” value turned out to be 13% and the EC50 came to 500 pM.
For the compound `Cc1ccc(C#CC(O)(CC(C)(C)c2ccccc2)C(=O)Nc2ccc3c(=O)onc(C)c3c2)cc1` (single isomer, unassigned; (-)) [Example 17b, (−)-6-[2-Hydroxy-4-methyl-2-[(4-methylphenyl)ethynyl]-4-phenylpentanoylamino]-4-methyl-2,3-benzoxazin-1-one], in test [1], the “Antagonistic Activity Efficacy” value came to 88% and the IC50 worked out at 30 pM. For the same compound, in test [2], the “Agonistic Activity Efficacy” value was 7%.
For `C#CC(O)(CC(C)(C)c1ccccc1)C(=O)Nc1ccc2c(=O)onc(C)c2c1` (racemic) [Example 14, rac-6-[2-Ethynyl-2-hydroxy-4-methyl-4-phenylpentanoylamino]-4-methyl-2,3-benzoxazin-1-one], in test [1], the “Antagonistic Activity Efficacy” value is recorded as 53% and the IC50 amounted to 6000 pM. Moreover, in test [2], the “Agonistic Activity Efficacy” value was 35% and the half-maximal effective concentration (EC50) is 7000 pM.
For the compound `COc1ccc(C#CC(O)(CC(C)(C)c2ccccc2)C(=O)Nc2ccc3c(=O)onc(C)c3c2)cc1` (racemic) [Example 18, rac-6-[2-Hydroxy-2-[(4-methoxyphenyl)ethynyl]-4-methyl-4-phenylpentanoylamino]-4-methyl-2,3-benzoxazin-1-one], in test [1], the “Antagonistic Activity Efficacy” value came to 89% and the IC50 was 200 pM. Moreover, the “Agonistic Activity Efficacy” value in test [2] is 8%.
On to `Cc1noc(=O)c2ccc(NC(=O)C(O)(C#Cc3ccccc3)CC3(c4ccccc4Cl)CCCC3)cc12` (racemic) [Example 5, rac-6-{2-[(2-Chlorophenyl)cyclopentyl]methyl-2-hydroxy-4-phenylbut-3-ynoylamino}-4-methyl-2,3-benzoxazin-1-one], for which, in test [1], the “Antagonistic Activity Efficacy” value is given as 86% and the IC50 amounted to 200 pM. In test [2], the “Agonistic Activity Efficacy” value turned out to be 10% and the EC50 was 200 pM.
`Cc1cc(C)c(C#CC(O)(CC(C)(C)c2ccccc2)C(=O)Nc2ccc3c(=O)onc(C)c3c2)cc1C` (racemic) [Example 35, rac-6-[2-[(2,4,5-Trimethylphenyl)ethynyl]-2-hydroxy-4-methyl-4-phenylpentanoylamino]-4-methyl-2,3-benzoxazin-1-one]: in test [1], the “Antagonistic Activity Efficacy” value was found to be 100% and the IC50 was 2000 pM. For the same compound, the “Agonistic Activity Efficacy” value in test [2] amounted to 0%.
